{"source": "patent US4908384A", "about": "“Fatty acid leukotriene synthesis inhibitors” (McNeilab, Inc., priority 1986, dated 1990)", "key": {"[1]": {"tested_on": "guinea pig lung parenchymal tissue", "test": "Immunologically Mediated Contraction of the Parenchymal Strip (IMCPS)", "format": "cell-based", "details": "Cavia porcellus, inhibition of egg albumin-induced contraction of sensitized guinea pig lung strip, 30 min preincubation, chlorpheniramine 10 μM and indomethacin 100 μM present, active if >=15%, read-out: IMCPS % Inhib @ 100 μM", "method": "(a) Immunogically Mediated Contraction of the Parenchymal Strip (IMCPS)\nIt is a modification of the procedure published by K. Forsberg and L. Sorenby in Agents and Actions, Vol. 9 pp. 364-368 (1978). In this test, male Hartley strain guinea pigs weighting 400 to 600 g were sensitized by subcutaneous administration of chicken egg albumin (Sigma A-5503, 1.0 mg, 0.5% solution) and bordetella pertussis, 11×10^9 cells (MassachusettsPublic health Biological Labs) 4 to 8 weeks prior to the experiment. The animals were sacrificed, the heart and lungs were removed en bloc and placed in Krebs solution at room temperature. Lung strips (2.5 cm in length) were cut from the perihperal edge of each lobe. Two strips were removed from each animal and were trimmed to be of equal length. Each strip was suspended in an isolated organ bath (10.0 ml) containing oxygenated Krebs buffer solution at 37.5° C. then attached to a force displacement transducer (Grass FTO3) and placed under an initial tension of 1.0 g. The tissues were allowed to equilibrate for 45-60 min, during which the bathing solution was changed several times. At the end of the equilbration period, chlorpheniramine (10.0μM) and indomethacin (100.0μM) were added to eliminate the contribution of histamine and prostaglandins to the contractile response. The two tissues from each animal were matched so that one tissue served as a control and the test drug dissolved in DMSO was added to the bath containing the other tissue at a final concentration of 100μM. After 30 min, egg albumin was added to each bath and the contractile response was measured as milligrams of tension developed as recorded on a Grass Model 7D polygraph.\n(§1) The results of the IMCPS and the HGALP tests, employing the administration of various illustrative compounds of the present invention, are shown in Table I. The compounds are of the formula (I) wherein R^1, R^2, R^3, A and Y are as shown, R^4 and R^5 are hydrogen and k is 3."}, "human granulocyte cells": {"tested_on": "human granulocyte cells", "test": "Human granulocyte Assay for Lipoxygenase Products (HGALP)", "format": "cell-based", "details": "inhibition of [3H]-lipoxygenase metabolite release; human granulocytes prelabeled with [3H]-arachidonic acid, 10 μM ionophore A23187, 14 μM indomethacin", "method": "(b) Human granulocyte Assay for Lipoxygenase Products (HGALP)\nThis test is a measurement of the inhibition of the synthesis or relase of [3H]-labeled lipoxygenase metabolites released or generated from human granulocyte cells that are prelabeled with [3H]-arachidonic acid. These metabolites include the leukotrienes (e.g., LTB4) which are potent mediators of inflammation and allergy. In this test, a granulocyte enriched fraction is prepared from freshly drawn human blood (50 ml/donor) by standard techniques involving unit gravity separation on ficoll hypaque. […] After washing out unincorporated label, the radiolabeled cells are brought up in incubation buffer (Minimum Essential Medium containing 14 μM indomethacin) to a 10^7 cell/ml concentration. […] Cell suspensions are challeged with 10 μM ionophore A23187 to […], incubations are terminated by the addition of 1 ml ice cold phosphate buffered saline, and cells are pelleted by centrifugation. Supernatants are passed through C18 Sep Pak® cartridges which are then washed twice with 1 ml water. Lipoxygenase metabolites are eluted with two 1 ml volumes of methanol. Eluates are collected in scintillation vials and counted in Aqueous Counting Scintillant (ACS). Radioactivity eluted with methanol is a measure of lipoxygenase metabolites. Values are normalized to vehicle (5 μl DMSO) treated controls and expressed as percent inhibition. Triplicate determinations at each drug concentration are analyzed as log-dose response curves by linear regression analysis from which IC50 values are derived.\nas §1"}}, "data": [{"smiles": "CCCCCCCCCCCCC(O)CC#CCCCC(=O)O", "note": "(stereo not shown) [Example 1d, 8-Hydroxy-5-eicosynoic acid]", "values": [{"measurement": "inhibition at 100 µM", "setting": "[1]", "result": "20 to 43", "unit": "%"}, {"measurement": "IC50", "setting": "human granulocyte cells", "result": 12, "unit": "µM"}]}, {"smiles": "CCCCCCCCCCCCC(O)C/C=C\\CCCC(=O)O", "note": "(stereo not shown) [Example 2, 8-Hydroxy-5(Z)-eicosenoic Acid]", "values": [{"measurement": "inhibition at 100 µM", "setting": "[1]", "result": 19, "unit": "%"}, {"measurement": "IC50", "setting": "human granulocyte cells", "result": 7.5, "unit": "µM"}]}, {"smiles": "CCCCCCCCCCCCC(=O)C/C=C\\CCCC(=O)O", "note": "[Example 3, 8-oxo-5-(Z)-eicosenoic Acid]", "values": [{"measurement": "inhibition at 100 µM", "setting": "[1]", "result": 24, "unit": "%"}, {"measurement": "IC50", "setting": "human granulocyte cells", "result": 13, "unit": "µM"}]}, {"smiles": "CCCCCCCCCCCCC(=O)CC#CCCCC(=O)O", "note": "[Example 4, 8-Oxo-5-eicosynoic Acid]", "values": [{"measurement": "inhibition at 100 µM", "setting": "[1]", "result": 22, "unit": "%"}, {"measurement": "IC50", "setting": "human granulocyte cells", "result": 4.9, "unit": "µM"}]}, {"smiles": "O=C(O)CCCC#CCC(O)CCc1ccccc1", "note": "(stereo not shown) [Example 5, 8-Hydroxy-10-phenyl-5-decynoic Acid Hydrate (10:1)]", "values": [{"measurement": "inhibition at 100 µM", "setting": "[1]", "result": "9 to 14", "unit": "%"}, {"measurement": "IC50", "setting": "human granulocyte cells", "result": 14.2, "unit": "µM"}]}, {"smiles": "O=C(O)CCC/C=C\\CC(O)CCc1ccccc1", "note": "(stereo not shown) [Example 6, 8-Hydroxy-10-phenyl-5(Z)-decenoic Acid]", "values": [{"measurement": "inhibition at 100 µM", "setting": "[1]", "result": 9, "unit": "%"}, {"measurement": "IC50", "setting": "human granulocyte cells", "result": 13, "unit": "µM"}]}, {"smiles": "CCCCCc1ccc(OCC(O)CC#CCCCC(=O)O)cc1", "note": "(stereo not shown) [Example 7b, 8-Hydroxy-9(4-pentylphenoxy)-5-nonynoic acid]", "values": [{"measurement": "inhibition at 100 µM", "setting": "[1]", "result": 29, "unit": "%"}, {"measurement": "IC50", "setting": "human granulocyte cells", "result": 12, "unit": "µM"}]}, {"smiles": "CCCCCc1ccc(OCC(O)CC#CCCCC(=O)OC)cc1", "note": "(stereo not shown) [Example 8, Methyl 8-Hydroxy-9-(4-pentylphenoxy)-5-nonynoate]", "values": [{"measurement": "inhibition at 100 µM", "setting": "[1]", "result": 14, "unit": "%"}, {"measurement": "IC50", "setting": "human granulocyte cells", "result": 8, "unit": "µM"}]}, {"smiles": "CCCCCc1ccc(OCC(O)C/C=C\\CCCC(=O)OC)cc1", "note": "(stereo not shown) [Example 9, Methyl 8-Hydroxy-9-(4-pentylphenoxy)-5(Z)-nonenoate]", "values": [{"measurement": "inhibition at 100 µM", "setting": "[1]", "result": 0, "unit": "%"}, {"measurement": "IC50", "setting": "human granulocyte cells", "result": 14, "unit": "µM"}]}, {"smiles": "CCCCCc1ccc(OCC(O)C/C=C\\CCCC(=O)O)cc1", "note": "(stereo not shown) [Example 10, 8-Hydroxy-9-(4-pentylphenoxy)-5-(Z)-nonenoic acid]", "values": [{"measurement": "inhibition at 100 µM", "setting": "[1]", "result": 28.5, "unit": "%"}, {"measurement": "IC50", "setting": "human granulocyte cells", "result": "1.1 to 9.5", "unit": "µM"}]}, {"smiles": "CCCCCc1ccc(OCC(C/C=C\\CCCC(=O)OC)SC(C)=O)cc1", "note": "(stereo not shown) [Example 11, Methyl 8-(Acetylthio)-9-(4-pentylphenoxy)-5-(Z)-nonenoate]", "values": [{"measurement": "inhibition at 100 µM", "setting": "[1]", "result": 3, "unit": "%"}, {"measurement": "IC50", "setting": "human granulocyte cells", "result": 8.5, "unit": "µM"}]}, {"smiles": "CCCCCc1ccc(OCC(S)CC#CCCCC(=O)O)cc1", "note": "(stereo not shown) [Example 12b, 8-Mercapto-9-(4-pentylphenoxy)-5-nonynoic acid]", "values": [{"measurement": "inhibition at 100 µM", "setting": "[1]", "result": 29, "unit": "%"}, {"measurement": "IC50", "setting": "human granulocyte cells", "result": 13, "unit": "µM"}]}, {"smiles": "CCCCCc1ccc(OCC(O)CCCCCCC(=O)O)cc1", "note": "(stereo not shown) [Example 13, 8-Hydroxy-9-(4-pentylphenoxy)nonanoic Acid]", "values": [{"measurement": "inhibition at 100 µM", "setting": "[1]", "result": 6, "unit": "%"}, {"measurement": "IC50", "setting": "human granulocyte cells", "result": 2.3, "unit": "µM"}]}, {"smiles": "CCCCCOc1ccc(OCC(O)CC#CCCCC(=O)O)cc1", "note": "(stereo not shown) [Example 14b, 8-Hydroxy-9-(4-pentoxyphenoxy)-5-nonynoic acid]", "values": [{"measurement": "inhibition at 100 µM", "setting": "[1]", "result": "0 to 30", "unit": "%"}, {"measurement": "IC50", "setting": "human granulocyte cells", "result": 33, "unit": "µM"}]}]}
